Measured values from paper PMC9691366, “Modulating the pharmacokinetic profile of Actinium-225-labeled macropa-derived radioconjugates by dual targeting of PSMA and albumin” (Theranostics, 2022).
Marks after values point to notes of the source that are not given here.

Assays:
PSMA = PSMA (Homo sapiens, UniProt Q04609); experiment: Saturation binding studies on PSMA-positive LNCaP cells; conditions: 95% confidence interval in brackets; for Kd: on ice
Procedure: The cell binding behavior of the ^225Ac-labeled, 4-(p-iodophenyl)butyrate-containing PSMA radioconjugates [^225Ac]Ac-mcp-M-alb-PSMA and [^225Ac]Ac-mcp-D-alb-PSMA was analyzed in saturation binding studies using PSMA-positive LNCaP cells.
Figure 2 Saturation binding curves for (A) [^225Ac]Ac-mcp-M-alb-PSMA and (B) [^225Ac]Ac-mcp-D-alb-PSMA. Nonspecific binding was determined in the presence of 500 µM unlabeled PSMA-617. Specific binding was calculated as the difference between total and nonspecific binding (n = 3 for each data point).
Saturation binding studies to determine the equilibrium dissociation constants (KD) and the maximum binding capacities (Bmax) were performed as described elsewhere. In short, 30000 LNCaP cells were seeded in 48-well microplates (Greiner Bio-One GmbH, Frickenhausen, Germany) and cultivated for 48 h to allow cell adhesion and growth. During the experiment, cells were kept on ice and all reagents were added ice-cold. The cell culture medium was replaced by PBS (200 µL/well) and the microplates were preincubated for 30 min at 4 °C. The ^225Ac-radioconjugates were added to the wells in a volume of 200 µL at different concentrations (15 pM to 500 nM). The nonspecific binding was assessed in parallel by blocking the LNCaP cells with a 1000-fold excess of unlabeled PSMA-617. After incubation of the microplates for 90 min on ice, the cells were washed three times with ice-cold PBS. The cells were lysed in 0.1 M NaOH containing 1% (w/v) sodium dodecyl sulfate. The activity of cell lysates was measured using an automatic gamma counter (Hidex Deutschland Vertrieb GmbH, Mainz, Germany).

LNCaP cells = experiment: Clonogenic survival assay; type: cell-based, human; conditions: for inhibition of colony formation: 1 h exposure; for EC50 for 1 h treatment: clonogenic survival of LNCaP cells, 95% confidence interval in brackets
Procedure: Figure 3 Clonogenic survival of LNCaP cells after treatment with [^225Ac]Ac-mcp-M-alb-PSMA or [^225Ac]Ac-mcp-D-alb-PSMA for (A) 1 h or (B) 4 h, respectively. Cells were exposed to different activity concentrations of 225Ac-labeled PSMA conjugates for the indicated treatment time and thereafter supplemented with fresh medium. Eight days later, colonies formed were stained and counted by digital analysis. Data points represent the mean colony number of three samples, normalized to values obtained for the untreated reference samples.
Colony formation of LNCaP cells upon exposure to increasing activity concentrations of both ^225Ac-radioconjugates was analyzed as previously reported with slight modifications. Briefly, 6000 LNCaP cells were seeded in 6-well microplates (Greiner Bio-One GmbH, Frickenhausen, Germany) and cultivated overnight to allow cell adhesion. The cell culture medium was replaced by serum-free RPMI-1640 medium (2 mL/well) and the microplates were further incubated at 37 °C. After 1 h, five different activity concentrations (0.05, 0.5, 1, 5, and 50 kBq/mL) of the ^225Ac-radioconjugates were added in triplicate. After 1 or 4 h of incubation at 37 °C, the supernatants were replaced by fresh RPMI-1640 medium with 10% FCS (2 mL/well) and plates were incubated at 37 °C for 8 d. Finally, the cell culture medium was discarded and colonies were stained with 0.5% crystal violet in 50% methanol (1 mL/well) for 30 min, after which the plates were rinsed three times with deionized water and subsequently air-dried. The plates were scanned with an Amersham Typhoon 5 Scanner (Cytiva Europe GmbH, Freiburg, Germany) and the colonies were counted using the Image-Quant TL software (Version 8.1, Cytiva Europe GmbH, Freiburg, Germany).

[1] = type: physicochemical; conditions: pH 7.4
Procedure: 1-Octanol/water distribution coefficients (log D) were determined by applying the shake-flask-method. 20 µL of the reaction mixture were poured into 580 µL of 5xPBS (pH 7.4). Afterwards, 600 µL of 1-octanol was added and the two-phase-system was vigorously stirred for 5 min. Then, the samples were centrifuged, the phases were separated and the count rates were measured using ISOMED2160 sodium iodide crystal detector (at least 4 h after phase separation due to initial decay products).

PSMA, sequence (Q04609 whole entry): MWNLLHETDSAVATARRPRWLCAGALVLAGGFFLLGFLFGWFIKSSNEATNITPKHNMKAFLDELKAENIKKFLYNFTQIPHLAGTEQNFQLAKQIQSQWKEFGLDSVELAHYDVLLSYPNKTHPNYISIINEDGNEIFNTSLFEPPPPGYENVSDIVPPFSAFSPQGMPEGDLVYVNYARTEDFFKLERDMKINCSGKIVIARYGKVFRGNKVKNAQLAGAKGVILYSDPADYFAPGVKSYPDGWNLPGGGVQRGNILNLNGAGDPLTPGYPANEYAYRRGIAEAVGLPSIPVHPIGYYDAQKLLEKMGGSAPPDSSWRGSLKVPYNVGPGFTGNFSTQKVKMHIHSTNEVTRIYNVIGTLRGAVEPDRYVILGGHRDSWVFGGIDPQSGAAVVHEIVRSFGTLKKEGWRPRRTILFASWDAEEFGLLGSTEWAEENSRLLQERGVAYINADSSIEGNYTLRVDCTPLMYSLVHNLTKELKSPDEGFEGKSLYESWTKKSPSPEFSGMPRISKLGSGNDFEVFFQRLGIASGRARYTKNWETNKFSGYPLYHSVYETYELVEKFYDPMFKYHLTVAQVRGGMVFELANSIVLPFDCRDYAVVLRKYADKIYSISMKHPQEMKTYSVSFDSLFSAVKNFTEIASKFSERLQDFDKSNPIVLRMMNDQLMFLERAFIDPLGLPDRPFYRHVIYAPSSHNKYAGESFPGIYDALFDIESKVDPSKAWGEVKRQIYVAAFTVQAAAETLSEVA

Structure (SMILES) | Bmax (PSMA) | Kd (PSMA) | inhibition of colony formation (LNCaP cells; 0.05 kBq/mL) | inhibition of colony formation (LNCaP cells; 0.5 kBq/mL) | EC50 for 1 h treatment (LNCaP cells) | logD [1] | inhibition of colony formation (LNCaP cells; 5 kBq/mL)
O=C(O)CC[C@H](NC(=O)N[C@@H](CCCCNC(=O)[C@H](Cc1ccc2ccccc2c1)NC(=O)[C@H]1CC[C@H](CNC(=O)[C@H](CCCCn2cc(COc3cc(CN4CCOCCOCCN(Cc5cc(OCc6cn(CCCC[C@H](NC(=O)[C@H](CCC(=O)O)NC(=O)CCCc7ccc(I)cc7)C(=O)NC[C@H]7CC[C@H](C(=O)N[C@@H](Cc8ccc9ccccc9c8)C(=O)NCCCC[C@H](NC(=O)N[C@@H](CCC(=O)O)C(=O)O)C(=O)O)CC7)nn6)cc(C(=O)O)n5)CCOCCOCC4)nc(C(=O)O)c3)nn2)NC(=O)[C@H](CCC(=O)O)NC(=O)CCCc2ccc(I)cc2)CC1)C(=O)O)C(=O)O [[^225Ac]Ac-mcp-D-alb-PSMA, metal not drawn] | 1.96 (1.89 to 2.04)^# pmol/mg of protein | 11.6 nM | about 50% | virtually abrogated clonogenic activity | 0.0519 (0.0353 to 0.0753)^# kBq/mL | -1.7 | –
O=C(O)CC[C@H](NC(=O)N[C@@H](CCCCNC(=O)[C@H](Cc1ccc2ccccc2c1)NC(=O)[C@H]1CC[C@H](CNC(=O)[C@H](CCCCn2cc(COc3cc(CN4CCOCCOCCN(Cc5cccc(C(=O)O)n5)CCOCCOCC4)nc(C(=O)O)c3)nn2)NC(=O)[C@H](CCC(=O)O)NC(=O)CCCc2ccc(I)cc2)CC1)C(=O)O)C(=O)O [[^225Ac]Ac-mcp-M-alb-PSMA, metal not drawn] | 0.46 (0.43 to 0.49)^# pmol/mg of protein | 23.4 nM | – | about 50% | 0.5233 (0.4010 to 0.6767)^# kBq/mL | -2.4 | almost complete inhibition of colony formation
